Experimental data taken from ChEMBL document CHEMBL5137050, “Hematopoietic Progenitor Kinase 1 in Tumor Immunology: A Medicinal Chemistry Perspective” (J Med Chem, 2022).
pEC50, pIC50, pKd, pKi: −log10 of the molar value.

Assays:
[1] = biological target: T1, Mitogen-activated protein kinase kinase kinase kinase 1 (Homo sapiens, UniProt Q92918); assay: Inhibition of HPK1 (1 to 346 residues) (unknown origin) assessed as inhibition constant by Lanthascreen binding assay
Target sequence in this assay (Q92918 whole entry, the tested form may be a part): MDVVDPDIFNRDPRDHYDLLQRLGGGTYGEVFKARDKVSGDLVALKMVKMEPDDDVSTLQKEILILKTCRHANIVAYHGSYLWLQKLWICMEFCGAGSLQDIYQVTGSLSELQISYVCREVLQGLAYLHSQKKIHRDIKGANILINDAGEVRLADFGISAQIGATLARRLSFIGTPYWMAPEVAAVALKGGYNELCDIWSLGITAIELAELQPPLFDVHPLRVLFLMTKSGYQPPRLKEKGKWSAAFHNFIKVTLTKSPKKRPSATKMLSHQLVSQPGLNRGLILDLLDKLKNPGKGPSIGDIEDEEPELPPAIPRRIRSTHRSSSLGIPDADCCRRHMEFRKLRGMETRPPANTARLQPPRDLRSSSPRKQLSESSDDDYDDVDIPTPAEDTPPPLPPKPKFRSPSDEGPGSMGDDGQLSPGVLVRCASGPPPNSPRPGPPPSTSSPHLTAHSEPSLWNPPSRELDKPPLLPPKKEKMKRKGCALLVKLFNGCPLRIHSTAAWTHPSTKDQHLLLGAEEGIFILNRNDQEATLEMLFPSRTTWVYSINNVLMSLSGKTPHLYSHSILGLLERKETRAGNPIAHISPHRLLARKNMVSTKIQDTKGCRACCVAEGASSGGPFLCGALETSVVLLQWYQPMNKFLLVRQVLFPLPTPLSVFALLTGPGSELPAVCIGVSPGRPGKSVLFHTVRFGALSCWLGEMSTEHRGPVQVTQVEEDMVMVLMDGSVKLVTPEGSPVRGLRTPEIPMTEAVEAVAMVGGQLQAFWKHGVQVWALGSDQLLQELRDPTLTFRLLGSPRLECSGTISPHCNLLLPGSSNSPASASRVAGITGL

[2] = biological target: T1, Mitogen-activated protein kinase kinase kinase kinase 1; assay: Inhibition of HPK1 (unknown origin) assessed as inhibition constant by Lanthascreen binding assay
Target sequence in this assay (Q92918 whole entry, the tested form may be a part): as above

[3] = biological target: Tyrosine-protein kinase Lck (Homo sapiens, UniProt P06239); assay: Inhibition of LCK (unknown origin)
[4] = biological target: T2, Receptor-type tyrosine-protein kinase FLT3 (Homo sapiens, UniProt P36888); assay: Inhibition of FLT3 (unknown origin) by FRET assay
T2 sequence (P36888 whole entry): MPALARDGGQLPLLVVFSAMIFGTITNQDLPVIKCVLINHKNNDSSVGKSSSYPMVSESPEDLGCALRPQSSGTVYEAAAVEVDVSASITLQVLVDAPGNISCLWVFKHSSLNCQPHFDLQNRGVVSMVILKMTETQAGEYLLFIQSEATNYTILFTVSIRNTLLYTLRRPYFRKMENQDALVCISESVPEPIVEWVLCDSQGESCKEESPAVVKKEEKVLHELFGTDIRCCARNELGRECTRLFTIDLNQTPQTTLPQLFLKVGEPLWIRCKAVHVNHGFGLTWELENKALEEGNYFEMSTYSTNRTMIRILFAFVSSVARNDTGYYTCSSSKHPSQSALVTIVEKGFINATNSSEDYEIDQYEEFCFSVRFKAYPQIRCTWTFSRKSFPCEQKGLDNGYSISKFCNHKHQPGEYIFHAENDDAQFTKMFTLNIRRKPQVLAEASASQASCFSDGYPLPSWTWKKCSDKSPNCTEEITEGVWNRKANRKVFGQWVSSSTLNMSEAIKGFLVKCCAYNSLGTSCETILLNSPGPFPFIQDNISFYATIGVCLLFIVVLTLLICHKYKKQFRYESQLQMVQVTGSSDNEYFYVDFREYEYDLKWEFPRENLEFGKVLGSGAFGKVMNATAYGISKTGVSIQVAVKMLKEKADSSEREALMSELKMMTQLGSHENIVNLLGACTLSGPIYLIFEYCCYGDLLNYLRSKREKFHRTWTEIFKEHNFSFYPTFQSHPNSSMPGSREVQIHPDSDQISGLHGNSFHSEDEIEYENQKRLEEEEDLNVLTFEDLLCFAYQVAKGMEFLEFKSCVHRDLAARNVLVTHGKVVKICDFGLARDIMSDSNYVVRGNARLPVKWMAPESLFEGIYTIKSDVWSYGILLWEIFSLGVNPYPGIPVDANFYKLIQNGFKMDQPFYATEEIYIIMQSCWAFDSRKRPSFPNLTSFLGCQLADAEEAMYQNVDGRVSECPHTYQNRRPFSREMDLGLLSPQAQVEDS

[5] = biological target: T1, Mitogen-activated protein kinase kinase kinase kinase 1; assay: Inhibition of HPK1 (unknown origin) by ELISA
Target sequence in this assay (Q92918 whole entry, the tested form may be a part): as the sequence (Q92918 whole entry, the tested form may be a part) above

[6] = biological target: T1, Mitogen-activated protein kinase kinase kinase kinase 1; assay: Inhibition of HPK1 (unknown origin) assessed as inhibition of SLP76 phosphorylation at 0.3 to 1 uM relative to control; settings: dose 0.3-1 µM
Target sequence in this assay (Q92918 whole entry, looked up, the tested form may be a part): as the sequence (Q92918 whole entry, the tested form may be a part) above

[7] = biological target: T1, Mitogen-activated protein kinase kinase kinase kinase 1; assay: Inhibition of HPK1 (unknown origin) in presence of ATP
Target sequence in this assay (Q92918 whole entry, the tested form may be a part): as the sequence (Q92918 whole entry, the tested form may be a part) above

[8] = biological target: T1, Mitogen-activated protein kinase kinase kinase kinase 1; assay: Inhibition of HPK1 (unknown origin) by TR-FRET assay
Target sequence in this assay (Q92918 whole entry, the tested form may be a part): as the sequence (Q92918 whole entry, the tested form may be a part) above

[9] = biological target: T1, Mitogen-activated protein kinase kinase kinase kinase 1; assay: Inhibition of HPK1 (unknown origin) assessed as inhibition of SLP76 phosphorylation by HTRF assay
Target sequence in this assay (Q92918 whole entry, the tested form may be a part): as the sequence (Q92918 whole entry, the tested form may be a part) above

[10] = biological target: T1, Mitogen-activated protein kinase kinase kinase kinase 1; assay: Inhibition of HPK1 (unknown origin) by ADP-Glo kinase assay
[11] = biological target: T1, Mitogen-activated protein kinase kinase kinase kinase 1; assay: Inhibition of HPK1 (unknown origin) by FRET assay
[12] = biological target: T1, Mitogen-activated protein kinase kinase kinase kinase 1; assay: Inhibition of N-terminal DYKDDDDK-tagged human HPK1 (1 to 346 residues) expressed in baculovirus expression system using SLP76 as substrate incubated for 1 hr in presence of ATP by TR-FRET assay
[13] = biological target: T1, Mitogen-activated protein kinase kinase kinase kinase 1; assay: Inhibition of HPK1 in human PBMC assessed as inhibition of SLP76 phosphorylation incubated for 1 hr by ELISA; type: cell-based
[14] = biological target: T1, Mitogen-activated protein kinase kinase kinase kinase 1; assay: Inhibition of HPK1 (unknown origin) in presence of ATP by ADP-Glo kinase assay
[15] = biological target: T1, Mitogen-activated protein kinase kinase kinase kinase 1; assay: Inhibition of full-length HPK1 (unknown origin) assessed as inhibition constant in presence of ATP by HTRF assay
Interleukin-2 = Interleukin-2 (Homo sapiens, UniProt P60568); assay: Inhibition of IL-2 (unknown origin)
[16] = biological target: T1, Mitogen-activated protein kinase kinase kinase kinase 1; assay: Inhibition of HPK1(unknown origin) assessed as inhibition of SLP76 phosphorylation by cell based assay
[17] = biological target: T1, Mitogen-activated protein kinase kinase kinase kinase 1; assay: Binding affinity to HPK1 (unknown origin) assessed as dissociation constant by SPR analysis
[18] = biological target: T1, Mitogen-activated protein kinase kinase kinase kinase 1; assay: Inhibition of HPK1 (unknown origin) in presence of ATP by TR-FRET assay
[19] = biological target: T3, Protein cereblon/Mitogen-activated protein kinase kinase kinase kinase 1 (Homo sapiens) (UniProt Q92918+Q96SW2); assay: PROTAC activity at CRBN/HPK1 (unknown origin) assessed as degradation of HPK1 at 100 nM incubated for 12 hrs by cell based assay relative to control
[20] = biological target: T3, Protein cereblon/Mitogen-activated protein kinase kinase kinase kinase 1 (Homo sapiens); assay: PROTAC activity at CRBN/HPK1 (unknown origin) assessed as degradation of HPK1 at 10 nM incubated for 12 hrs by cell based assay relative to control
[21] = biological target: T3, Protein cereblon/Mitogen-activated protein kinase kinase kinase kinase 1 (Homo sapiens); assay: PROTAC activity at CRBN/HPK1 (unknown origin) assessed as maximum inhibition of SLP76 phosphorylation by cell based assay relative to control
[22] = biological target: T3, Protein cereblon/Mitogen-activated protein kinase kinase kinase kinase 1 (Homo sapiens); assay: PROTAC activity at CRBN/HPK1 (unknown origin) assessed as maximum degradation of HPK1 by cell based assay relative to control
[23] = Cytotoxicity against HEK293 cells assessed as cell growth inhibition; type: toxicity, cell-based; settings: human

T3 sequence (Q92918 whole entry, looked up): as the sequence (Q92918 whole entry, the tested form may be a part) above
T3 sequence (Q96SW2 whole entry, looked up): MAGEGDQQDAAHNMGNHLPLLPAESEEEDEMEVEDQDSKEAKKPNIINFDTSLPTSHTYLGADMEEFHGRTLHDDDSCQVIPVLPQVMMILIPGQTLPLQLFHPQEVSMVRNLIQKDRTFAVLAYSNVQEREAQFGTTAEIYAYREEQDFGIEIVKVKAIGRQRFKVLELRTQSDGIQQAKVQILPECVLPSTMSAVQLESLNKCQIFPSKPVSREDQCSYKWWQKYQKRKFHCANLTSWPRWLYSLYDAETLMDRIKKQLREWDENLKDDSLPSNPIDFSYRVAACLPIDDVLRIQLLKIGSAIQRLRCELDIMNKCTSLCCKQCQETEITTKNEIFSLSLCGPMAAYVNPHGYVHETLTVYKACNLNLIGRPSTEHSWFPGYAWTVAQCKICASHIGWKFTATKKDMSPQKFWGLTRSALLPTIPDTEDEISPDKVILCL
Tyrosine-protein kinase Lck, sequence (P06239 whole entry): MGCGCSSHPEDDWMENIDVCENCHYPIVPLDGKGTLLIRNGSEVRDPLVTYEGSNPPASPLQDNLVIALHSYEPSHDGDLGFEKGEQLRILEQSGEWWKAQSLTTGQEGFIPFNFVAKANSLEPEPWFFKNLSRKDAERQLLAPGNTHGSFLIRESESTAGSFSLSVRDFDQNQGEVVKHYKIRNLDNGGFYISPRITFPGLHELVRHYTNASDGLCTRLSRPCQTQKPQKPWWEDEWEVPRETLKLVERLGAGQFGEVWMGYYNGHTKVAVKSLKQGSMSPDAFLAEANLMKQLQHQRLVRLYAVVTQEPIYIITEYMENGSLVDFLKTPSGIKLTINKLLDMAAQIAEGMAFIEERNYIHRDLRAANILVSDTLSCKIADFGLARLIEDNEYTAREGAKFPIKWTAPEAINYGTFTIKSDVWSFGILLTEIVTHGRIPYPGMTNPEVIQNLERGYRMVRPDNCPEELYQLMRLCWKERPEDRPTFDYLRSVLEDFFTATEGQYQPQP
Interleukin-2, sequence (P60568 whole entry): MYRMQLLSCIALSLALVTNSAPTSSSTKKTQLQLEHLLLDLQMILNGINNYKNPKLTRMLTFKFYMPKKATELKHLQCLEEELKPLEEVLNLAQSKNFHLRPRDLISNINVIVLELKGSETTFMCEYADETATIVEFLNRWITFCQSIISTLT

COc1cccc(F)c1-c1cc2c(C(=O)Nc3ccc(N4CCN(C)CC4)cc3)n[nH]c2cn1
pKi [1]: ≥ 7.00

Cc1c(CC#N)ccnc1-c1cc(N)cc(-c2cnc3c(c2Cl)[C@]2(CC[C@](C)(C#N)C2)CN3)c1
pKi [2]: 9.05

CN1CCN(c2ccc3nc(-c4c(N)c5sccc5[nH]c4=O)[nH]c3c2)CC1
pIC50 [3]: 7.30
pIC50 [4]: 7.30
pIC50 [5]: 7.30
inhibition [6]: > 75%

COc1cc2c(cc1Nc1ncc(Br)c(Nc3ccccc3P(C)(C)=O)n1)CN(C)CC2
pIC50 [7]: ≥ 8.30

Cc1cc(CNCCO)cc(F)c1-c1cc2c(-c3cnn(C)c3)n[nH]c2cn1
pKi [1]: ≥ 7.00

Cc1cc(-c2cnc3[nH]cc(-c4ccc(C(O)C5CCN(C)C5)cc4)c3c2)ccc1N1CCN(C)CC1 (configuration not stated)
pIC50 [8]: 8.35

CC(C)n1cnnc1-c1cccc(N2Cc3c(cc(N4CCC[C@H]4C)nc3CN)C2=O)n1
pIC50 [9]: 7.66

COc1cc2c(cc1Nc1ncc(C(F)(F)F)c(Nc3ccccc3P(C)(C)=O)n1)CN(C)CC2
pIC50 [7]: 8.30

CN1CCN(c2ccc3nc(-c4c(N)c5ccsc5[nH]c4=O)[nH]c3c2)CC1
inhibition [6]: > 75%

COc1cccc(F)c1-c1ccc2[nH]nc(-c3ccc(N4CCN(C)CC4)cc3)c2n1
pKi [1]: ≥ 7.00

Cc1cc2cc(N)c(C(=O)N(C)C)nc2[nH]1
pKi [2]: 5.89

C[C@H]1COC(=O)N1c1cc(N)c2nnc(NC(=O)[C@@H]3C[C@H]3c3cnn(C)c3)cc2c1
pIC50 [10]: 8.72

CNCc1nc(C2(C)CC2)cc2c1CN(c1cccc(N3C(=O)OC[C@@H]3C)n1)C2=O
pIC50 [9]: 6.14

COc1cc2c(cc1Nc1ncc(Cl)c(Nc3ccccc3P(C)(C)=O)n1)CN(C)C2
pIC50 [7]: 8.00

Cc1ccncc1-c1cc2cc(NC(=O)C=C3CC(C#N)C3)ncc2c(N)n1 (configuration not stated)
pIC50 [10]: > 11.00

CN(C)C(=O)c1ccc(-c2c[nH]c3ncc(-c4ccc5c(c4)CNCC5)cc23)cc1
pIC50 [8]: 6.97

CCc1c(Cl)[nH]c2nc(C(=O)N(C)C)c(N)cc12
pKi [2]: 9.05

C/C(Nc1ccc(N2CCOCC2)cn1)=C1/C(=O)Nc2cnc(-c3cnccc3C)cc21
pIC50 [11]: > 7.30

COc1cc2c(cc1Nc1ncc(Cl)c(Nc3ccccc3P(C)(C)=O)n1)CN(C)CC2
pIC50 [7]: > 8.30
pIC50 [12]: 9.48
pIC50 [13]: 7.00

COCCN(C)C(=O)c1ccc(-c2c[nH]c3ncc(-c4ccc(N5CCN(C)CC5)cc4)nc23)cc1
pIC50 [8]: 8.09

COc1ccc(-c2c[nH]c3ncc(C#N)c(Oc4c(F)cc(NC5=NCC(C)(CO)CO5)cc4F)c23)c(F)c1 (configuration not stated)
pIC50 [14]: ≥ 7.30

CNC(=O)c1ccccc1Nc1nc(Nc2cc3c(cc2OC)CCN(C)C3)ncc1Cl
pIC50 [7]: 8.30

COc1cc2c(cc1Nc1ncc(Cl)c(Nc3ccccc3S(=O)(=O)C(C)C)n1)CN(C)CC2
pIC50 [7]: ≥ 8.30

Cc1cc(-c2cnc3[nH]cc(-c4ccc(C(=O)N5CC(N(C)C)C5)cc4)c3c2)cc(C)c1N1CCN(C2CCN(C)CC2)CC1
pIC50 [8]: 8.32

CCc1c(C)[nH]c2nc(C(=O)N(C)C)c(N)cc12
pKi [2]: 7.82

COc1ccc(-c2c[nH]c3ncnc(Oc4c(F)cc(NC5=NCC(C)(CO)CO5)cc4F)c23)c(F)c1 (configuration not stated)
pIC50 [14]: ≥ 7.30

Cc1c(N)cncc1-c1cc2cc(Nc3cc4n(n3)CC(=O)N(C(C)C)CC4)ncc2cc1F
pKi [15]: 10.30

COc1cc2c(cc1Nc1ncc(Cl)c(Nc3ccccc3P(C)(C)=O)n1)CN(C)CCC2
pIC50 [7]: 7.00

Cc1c(CC#N)ccnc1-c1cccc(-c2cnc3c(c2Cl)C2(CC[C@@](C)(C(N)=O)C2)CN3)c1F (some centres not stated)
pKi [2]: 9.41

CCN(CC)CCNC(=O)c1c[nH]c(/C=C2\C(=O)Nc3ccc(-c4c(F)cccc4OC)cc32)c1
pIC50 [11]: > 7.30

C[C@H]1CC(=O)c2ccc(Nc3cc4c([C@](C)(N)C5CC5)cnc(OC5CC5)c4cn3)cc2C12CC2
pIC50 [7]: 10.30
pEC50 (Interleukin-2): 8.03

COc1cccc(F)c1-c1ncc2[nH]nc(-c3ccc(N4CCN(C)CC4)cc3)c2n1
pKi [1]: ≥ 7.00

COc1cccc(F)c1-c1cc2c(NCc3ccc(N4CCN(C)CC4)cc3)n[nH]c2cn1
pKi [1]: 6.30

Cn1cc(Nc2ncc(C3=CCC[C@@H](NC(=O)c4ccccc4)C3)nc2C(N)=O)cn1
pEC50 [16]: 6.83
pKd [17]: 8.66
pIC50 [18]: 8.40

Cc1cc(-c2cnc(N)c(OCc3ccnc(C#Cc4cccc(F)c4)c3)n2)cc2c1CCN(C)C2
pIC50 [18]: 8.55

COc1cccc(F)c1-n1cc2c(-c3ccc(N4CCN(C)CC4)cc3)n[nH]c2cc1=O
pKi [1]: ≥ 7.00

CC(C)(O)C#Cc1cccc(COc2cc(-c3cnc(C4CCN(C(=O)CCOCCOCCOCCOCCOc5cccc6c5C(=O)N(C5CCC(=O)NC5=O)C6=O)CC4)s3)cnc2N)c1 (configuration not stated)
Activity [19]: 68%
Activity [20]: 72%

CC(C)(O)C#Cc1cccc(COc2cc(-c3cnc(C4CCN(C(=O)CCCCCCCCCOc5cccc6c5C(=O)N(C5CCC(=O)NC5=O)C6=O)CC4)s3)cnc2N)c1 (configuration not stated)
Activity [19]: 75%
Emax [21]: 81%
Activity [20]: 15%
Emax [22]: 62%

Cc1cc(-c2cnc3[nH]cc(-c4ccc(C(=O)N(C)C[C@H](C)O)cc4)c3n2)cc2c1CCN(CCN1CCOCC1)C2
pIC50 [8]: 7.96
pIC50 [23]: 5.85

CN1CCN(c2ccc3[nH]c(-c4c(N)c5ccsc5[nH]c4=O)nc3c2)CC1
pIC50 [3]: 7.30
pIC50 [4]: ≥ 6.30
pIC50 [5]: ≥ 7.30

COc1cc2c(cc1Nc1ncc(Cl)c(N3CC(CO)c4ccccc43)n1)CN(C)CC2 (configuration not stated)
pIC50 [10]: > 7.00

CN(C)C(=O)c1ccc(-c2c[nH]c3ncc(-c4ccc5c(c4)CN([C@H]4CC[C@](C)(O)CC4)CC5)cc23)cc1
pIC50 [8]: 8.14
